Reference: patent US9873680B2 (Gilead Sciences, Inc., priority 2014, dated 2018)
Where two headings read alike, the source gives them in different places.

Legend:
[1] = Test B: Cytotoxicity Assay; format: cell-based; settings: human, uninfected MT-4 cells, CellTiter-Glo
Experimental: Test B: Cytotoxicity Assay Compound cytotoxicity and the corresponding CC50 values was determined using the same protocol as described in the antiviral assay (Test A) except that uninfected cells were used.

[2] = test system: HIV-IIIb; assay: Test A: Antiviral Assay in MT4 Cells; format: cell-based, HIV-1
How it was run: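 MT-4 cells were preinfected with HIV-IIIb […]. Cell viability, as protection from viral cytopathic effect, was read by CellTiter-Glo chemiluminescence.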

[3] = Human immunodeficiency virus 1, IIIB, MT4, 120 h, read-out: % inhibition at 0.2 μM (percent inhibition of virus-induced cell killing)
[4] = Human immunodeficiency virus 1, MT4, 120 h, 0.2 μM drug concentration, MT-4 cells infected with HIV-IIIb, 5 days, values normalized to 100%, average over time, read-out: % inhibition at 0.2 μM (percent inhibition of virus-induced cell killing)

SMILES	CC50 at 5 days [1] [µM]	inhibition at 0.2 µM [2, 3] [%]	inhibition at 0.2 µM [2, 4] [%]	inhibition at 0.2 µM ([2]; Human immunodeficiency virus 1, IIIB, MT4, 0.2 μM drug concentration, comparison with previously published compounds, read-out: Response at 0.2 μM (percent inhibition of virus-induced cell killing)) [%]	inhibition at 2 µM ([2]; Human immunodeficiency virus 1, IIIB, MT4, 2 μM drug concentration, comparison with previously published compounds, read-out: Response at 2 μM (percent inhibition of virus-induced cell killing)) [%]
CC(=O)N1CCO[C@](C)(C#Cc2ccc(-c3ccc(Cl)c4c(NS(C)(=O)=O)nn(C)c34)c([C@H](Cc3cc(F)cc(F)c3)NC(=O)Cn3nc(C(F)F)c4c3C(F)(F)[C@@H]3C[C@H]43)n2)C1 [Compound 86, N—((S)-1-(6-(((R)-4-acetyl-2-methylmorpholin-2-yl)ethynyl)-3-(4-chloro-1-methyl-3-(methylsulfonamido)-1H-indazol-7-yl)pyridin-2-yl)-2-(3,5-difluorophenyl)ethyl)-2-((3bS,4aR)-3-(difluoromethyl)-5,5-difluoro-3b,4,4a,5-tetrahydro-1H-cyclopropa[3,4]cyclopenta[1,2-c]pyrazol-1-yl)acetamide]	21.4	93	–	–	–
O=C(Cn1nc(C(F)F)c2c1C(F)(F)CCC2(F)F)N[C@@H](Cc1cc(F)cc(F)c1)c1nc(C#Cc2cncnc2)ncc1-c1ccc2c(c1)C(=O)NC2 [Compound 7H]	0.534	94	–	–	–
Cn1nc(NS(C)(=O)=O)c2cccc(-c3ccc(C#CC4(O)CNC4)nc3[C@H](Cc3cc(F)cc(F)c3)NC(=O)Cn3nc(C(F)(F)F)c4c3C(F)(F)[C@@H]3C[C@H]43)c21 [Compound 22C, 2-((3bS,4aR)-5,5-difluoro-3-(trifluoromethyl)-3b,4,4a,5-tetrahydro-1H-cyclopropa[3,4]cyclopenta[1,2-c]pyrazol-1-yl)-N—((S)-2-(3,5-difluorophenyl)-1-(6-((3-hydroxyazetidin-3-yl)ethynyl)-3-(1-methyl-3-(methylsulfonamido)-1H-indazol-7-yl)pyridin-2-yl)ethyl)acetamide]	17.7	–	93	–	–
Cn1nc(NS(C)(=O)=O)c2c(Cl)ccc(-c3ccc(C#CC4(O)CC4)nc3[C@H](Cc3cc(F)cc(F)c3)NC(=O)Cn3nc(C(F)F)c4c3C(F)(F)[C@@H]3C[C@H]43)c21 [Compound 62B, N—((S)-1-(3-(4-chloro-1-methyl-3-(methylsulfonamido)-1H-indazol-7-yl)-6-((1-hydroxycyclopropyl)ethynyl)pyridin-2-yl)-2-(3,5-difluorophenyl)ethyl)-2-((3bS,4aR)-3-(difluoromethyl)-5,5-difluoro-3b,4,4a,5-tetrahydro-1H-cyclopropa[3,4]cyclopenta[1,2-c]pyrazol-1-yl)acetamide]	14.9	–	93	–	–
O=C(Cn1nc(C(F)(F)F)c2c1C(F)(F)[C@@H]1C[C@H]21)N[C@@H](Cc1cc(F)cc(F)c1)c1nc(C#Cc2ccc(=O)[nH]c2)ccc1-c1ccc2c(c1)C(=O)NC2 [Compound 12, 2-((3bS,4aR)-5,5-difluoro-3-(trifluoromethyl)-3b,4,4a,5-tetrahydro-1H-cyclopropa[3,4]cyclopenta[1,2-c]pyrazol-1-yl)-N—((S)-2-(3,5-difluorophenyl)-1-(6-((6-oxo-1,6-dihydropyridin-3-yl)ethynyl)-3-(3-oxoisoindolin-5-yl)pyridin-2-yl)ethyl)acetamide]	7.7	–	70	–	–
Cn1nc(NS(C)(=O)=O)c2c(Cl)ccc(-c3ccc(C#CC4(O)CO[C@H]5OCC[C@H]54)nc3[C@H](Cc3cc(F)cc(F)c3)NC(=O)Cn3nc(C(F)(F)F)c4c3C(F)(F)[C@@H]3C[C@H]43)c21 (stereo partly drawn) [Compound 50B, N-((1S)-1-(3-(4-chloro-1-methyl-3-(methylsulfonamido)-1H-indazol-7-yl)-6-(((3aS,6aR)-3-hydroxyhexahydrofuro[2,3-b]furan-3-yl)ethynyl)pyridin-2-yl)-2-(3,5-difluorophenyl)ethyl)-2-((3bS,4aR)-5,5-difluoro-3-(trifluoromethyl)-3b,4,4a,5-tetrahydro-1H-cyclopropa[3,4]cyclopenta[1,2-c]pyrazol-1-yl)acetamide]	10	–	92	–	–
NC(=O)c1cc(-c2ccc(C#CC3(O)CCOCC3)nc2[C@H](Cc2cc(F)cc(F)c2)NC(=O)Cn2nc(C(F)(F)F)c3c2C(F)(F)[C@@H]2C[C@H]32)ccc1F [Compound 35, 5-(2-((S)-1-(2-((3bS,4aR)-5,5-difluoro-3-(trifluoromethyl)-3b,4,4a,5-tetrahydro-1H-cyclopropa[3,4]cyclopenta[1,2-c]pyrazol-1-yl)acetamido)-2-(3,5-difluorophenyl)ethyl)-6-((4-hydroxytetrahydro-2H-pyran-4-yl)ethynyl)pyridin-3-yl)-2-fluorobenzamide]	10.1	–	86	86	86
Cn1nc(NS(C)(=O)=O)c2cccc(-c3ccc(C#CC4CCOCC4)nc3[C@H](Cc3cc(F)cc(F)c3)NC(=O)Cn3nc(C(F)(F)F)c4c3C(F)(F)[C@@H]3C[C@H]43)c21 [Compound 28B, 2-((3bS,4aR)-5,5-difluoro-3-(trifluoromethyl)-3b,4,4a,5-tetrahydro-1H-cyclopropa[3,4]cyclopenta[1,2-c]pyrazol-1-yl)-N—((S)-2-(3,5-difluorophenyl)-1-(3-(1-methyl-3-(methylsulfonamido)-1H-indazol-7-yl)-6-((tetrahydro-2H-pyran-4-yl)ethynyl)pyridin-2-yl)ethyl)acetamide]	6.07	–	92	–	–
Cn1cncc1C#Cc1ccc(-c2cccc3c(NS(C)(=O)=O)nn(C)c23)c([C@H](Cc2cc(F)cc(F)c2)NC(=O)Cn2nc(C(F)(F)F)c3c2C(F)(F)[C@@H]2C[C@H]32)n1 [Compound 33, 2-((3bS,4aR)-5,5-difluoro-3-(trifluoromethyl)-3b,4,4a,5-tetrahydro-1H-cyclopropa[3,4]cyclopenta[1,2-c]pyrazol-1-yl)-N—((S)-2-(3,5-difluorophenyl)-1-(6-((1-methyl-1H-imidazol-5-yl)ethynyl)-3-(1-methyl-3-(methylsulfonamido)-1H-indazol-7-yl)pyridin-2-yl)ethyl)acetamide]	12.5	–	93	–	–
Cn1nc(NS(C)(=O)=O)c2c(Cl)ccc(-c3ccc(C#CC4(O)CCCNC4)nc3[C@H](Cc3cc(F)cc(F)c3)NC(=O)Cn3nc(C(F)(F)F)c4c3C(F)(F)[C@@H]3C[C@H]43)c21 (stereo partly drawn) [Compound 75, N-((1S)-1-(3-(4-chloro-1-methyl-3-(methylsulfonamido)-1H-indazol-7-yl)-6-((3-hydroxypiperidin-3-yl)ethynyl)pyridin-2-yl)-2-(3,5-difluorophenyl)ethyl)-2-((3bS,4aR)-5,5-difluoro-3-(trifluoromethyl)-3b,4,4a,5-tetrahydro-1H-cyclopropa[3,4]cyclopenta[1,2-c]pyrazol-1-yl)acetamide]	5.59	–	81	–	–
CC(=O)N1CCCC1C#Cc1ccc(-c2ccc(Cl)c3c(NS(C)(=O)=O)nn(C)c23)c([C@H](Cc2cc(F)cc(F)c2)NC(=O)Cn2nc(C(F)(F)F)c3c2C(F)(F)[C@@H]2C[C@H]32)n1 (stereo partly drawn) [Compound 55, N-((1S)-1-(6-((1-acetylpyrrolidin-2-yl)ethynyl)-3-(4-chloro-1-methyl-3-(methylsulfonamido)-1H-indazol-7-yl)pyridin-2-yl)-2-(3,5-difluorophenyl)ethyl)-2-((3bS,4aR)-5,5-difluoro-3-(trifluoromethyl)-3b,4,4a,5-tetrahydro-1H-cyclopropa[3,4]cyclopenta[1,2-c]pyrazol-1-yl)acetamide]	9.94	–	88	–	–
CN1CCN(C(C)(C)C#Cc2ccc(-c3ccc(Cl)c4c(NS(C)(=O)=O)nn(C)c34)c([C@H](Cc3cc(F)cc(F)c3)NC(=O)Cn3nc(C(F)(F)F)c4c3C(F)(F)[C@@H]3C[C@H]43)n2)CC1 [Compound 41, N—((S)-1-(3-(4-chloro-1-methyl-3-(methylsulfonamido)-1H-indazol-7-yl)-6-(3-methyl-3-(4-methylpiperazin-1-yl)but-1-yn-1-yl)pyridin-2-yl)-2-(3,5-difluorophenyl)ethyl)-2-((3bS,4aR)-5,5-difluoro-3-(trifluoromethyl)-3b,4,4a,5-tetrahydro-1H-cyclopropa[3,4]cyclopenta[1,2-c]pyrazol-1-yl)acetamide]	2.08	–	98	–	–
Cn1nc(NS(C)(=O)=O)c2c(Cl)ccc(-c3ccc(C#CC4(O)CO[C@H]5OCC[C@H]54)nc3[C@H](Cc3cc(F)cc(F)c3)NC(=O)Cn3nc(C(F)F)c4c3C(F)(F)[C@@H]3C[C@H]43)c21 (stereo partly drawn) [Compound 52, N-((1S)-1-(3-(4-chloro-1-methyl-3-(methylsulfonamido)-1H-indazol-7-yl)-6-(((3aS,6aR)-3-hydroxyhexahydrofuro[2,3-b]furan-3-yl)ethynyl)pyridin-2-yl)-2-(3,5-difluorophenyl)ethyl)-2-((3bS,4aR)-3-(difluoromethyl)-5,5-difluoro-3b,4,4a,5-tetrahydro-1H-cyclopropa[3,4]cyclopenta[1,2-c]pyrazol-1-yl)acetamide]	17.1	–	96	–	–
CN(C)c1ccc(C#Cc2ccc(-c3ccc4c(c3)C(=O)NC4)c([C@H](Cc3cc(F)cc(F)c3)NC(=O)Cn3nc(C(F)(F)F)c4c3C(F)(F)[C@@H]3C[C@H]43)n2)cc1 [Compound 14, 2-((3bS,4aR)-5,5-difluoro-3-(trifluoromethyl)-3b,4,4a,5-tetrahydro-1H-cyclopropa[3,4]cyclopenta[1,2-c]pyrazol-1-yl)-N—((S)-2-(3,5-difluorophenyl)-1-(6-((4-(dimethylamino)phenyl)ethynyl)-3-(3-oxoisoindolin-5-yl)pyridin-2-yl)ethyl)acetamide]	> 53.2	–	1	–	–
